Results from patent publication US8168592B2 (Amgen Inc., priority 2005, dated 2012).
Where two headings read alike, the source gives them in different places. Square brackets hold non-standard residues; d marks the D form. Peptide text beside a SMILES is read from it. Bip = N[C@@H](Cc1ccc(-c2ccccc2)cc1)C(=O)O; Oic = O=C(O)[C@@H]1C[C@@H]2CCCC[C@@H]2N1; 1Nal = N[C@@H](Cc1cccc2ccccc12)C(=O)O; 2Nal = N[C@@H](Cc1ccc2ccccc2c1)C(=O)O; hArg = N=C(N)NCCCC[C@H](N)C(=O)O; Tic = O=C(O)[C@@H]1Cc2ccccc2CN1; Cit = NC(=O)NCCC[C@H](N)C(=O)O

Target: T1, CGRP1 receptor (Homo sapiens, UniProt O60894+Q16602)
T1 construct: SK-N-MC cells express CRLR and RAMP1, which form CGRP1 receptor; endogenous in cells; host or cells: SK-N-MC human neuroblastoma cells
T1 sequence (Q16602 23-461): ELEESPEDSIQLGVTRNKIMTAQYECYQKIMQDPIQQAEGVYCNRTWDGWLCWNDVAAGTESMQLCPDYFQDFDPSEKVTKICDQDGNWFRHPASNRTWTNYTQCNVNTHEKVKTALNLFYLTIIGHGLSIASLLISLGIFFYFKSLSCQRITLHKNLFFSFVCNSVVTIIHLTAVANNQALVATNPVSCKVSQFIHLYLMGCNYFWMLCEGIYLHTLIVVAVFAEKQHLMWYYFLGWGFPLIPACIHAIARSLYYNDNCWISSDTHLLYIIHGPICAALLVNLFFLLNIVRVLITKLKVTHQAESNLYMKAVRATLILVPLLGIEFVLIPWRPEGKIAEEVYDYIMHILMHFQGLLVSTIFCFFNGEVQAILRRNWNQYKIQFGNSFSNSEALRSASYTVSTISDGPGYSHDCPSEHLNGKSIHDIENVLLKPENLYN
T1 sequence (O60894 27-148): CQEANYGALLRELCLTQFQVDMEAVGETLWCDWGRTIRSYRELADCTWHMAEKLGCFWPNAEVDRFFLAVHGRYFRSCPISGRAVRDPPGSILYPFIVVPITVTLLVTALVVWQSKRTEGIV
Assay: in vitro CGRP1 receptor mediated cAMP assay in SK-N-MC cells
Assay type: cell-based
Conditions: read-out: IC50
Protocol: The in vitro cAMP assay employed a human neuroblastoma-derived cell line (SK-N-MC). SK-N-MC cells express CRLR and RAMP1, which form CGRP1 receptor. CGRP1 receptor is a G-protein coupled receptor linked to the stimulatory G-protein, Gs. […] Briefly, two days before the assay, the cells were plated in 96-well plates in growth medium. On the day of the assay cells were rinsed with PBS followed by the addition of 60 μl of plasma free medium for 15 minutes at room temperature. […] The medium was then removed and the cells were lysed with 100 μl lysis buffer for 30 minutes at 37° C. for 30 minutes. Using a Tropix ELISA kit (Applied Biosystems, Foster City, Calif.), a cAMP-AP conjugate was diluted (1:100) and added (30 μl) to each well of a 96-well ELISA plate. An aliquot of the lysis buffer from the cell plate was then added to the ELISA plate followed by an aliquot of the cAMP antibody. This mixture was incubated for 1 hour at room temperature with gentle shaking. The ELISA plate was then washed 6× with wash buffer followed by the additions of a substrate enhancer. This mixture was incubated for 30 minutes at room temperature and then read on a MicroBeta Jet or EnVision plate reader. The results were analyzed using Prism (GraphPad).

IC50 (Table 2A) [nM]	Compound	other results
–	766 (Ac-WVTHRLAGLLSRSGGVVRC(20 kDa MeO‑PEG)NFVPTDVGPFAF-NH2) [compound 766]	IC50 (Table 2D): 4.09 nM
–	805 (Ac-WVTHRLAGLLSRSGGVVRC(20 kDa MeO‑PEG)NFVPTDVGPFAF-NH2) [compound 805]	IC50 (Table 2D): 1.33 nM
–	CC(C)C[C@H](NC(=O)CNC(=O)[C@H](C)NC(=O)[C@H](CC(C)C)NC(=O)[C@H](CCCNC(=N)N)NC(=O)[C@H](Cc1cnc[nH]1)NC(=O)[C@@H](NC(=O)[C@@H](NC(=O)[C@@H](N)Cc1c[nH]c2ccccc12)C(C)C)[C@@H](C)O)C(=O)N[C@@H](CC(C)C)C(=O)N[C@@H](CO)C(=O)N[C@@H](CCCNC(=N)N)C(=O)N[C@@H](CO)C(=O)NCC(=O)NCC(=O)N[C@H](C(=O)N[C@H](C(=O)N[C@@H](CCCCN)C(=O)N[C@@H](CC(N)=O)C(=O)N[C@@H](CC(N)=O)C(=O)N[C@@H](Cc1ccccc1)C(=O)N[C@H](C(=O)N1CCC[C@H]1C(=O)N[C@H](C(=O)N[C@@H](CC(N)=O)C(=O)N[C@H](C(=O)NCC(=O)N[C@@H](CO)C(=O)N[C@@H](CCCCN)C(=O)N[C@@H](C)C(=O)N[C@@H](Cc1ccccc1)C(N)=O)C(C)C)[C@@H](C)O)C(C)C)C(C)C)C(C)C [compound 4]	IC50 (Table 3, unconjugated CGRP peptide analogs, n = 2-4): 0.64 nM
13	CC(=O)N[C@@H](CCCCN)C(=O)N[C@@H](Cc1c[nH]c2ccccc12)C(=O)N[C@H](C(=O)N[C@H](C(=O)N[C@@H](Cc1c[nH]cn1)C(=O)N[C@@H](CCCNC(N)=O)C(=O)N[C@@H](CC(C)C)C(=O)N[C@@H](C)C(=O)NCC(=O)N[C@@H](CC(C)C)C(=O)N[C@@H](CC(C)C)C(=O)N[C@@H](CO)C(=O)N[C@@H](CCCNC(N)=O)C(=O)N[C@@H](CO)C(=O)NCC(=O)NCC(=O)N[C@H](C(=O)N[C@H](C(=O)N[C@@H](CCCNC(=N)N)C(=O)N[C@@H](CCCCN)C(=O)N[C@@H](CC(N)=O)C(=O)N[C@@H](Cc1ccccc1)C(=O)N[C@H](C(=O)N1CCC[C@H]1C(=O)N[C@H](C(=O)N[C@@H](CC(=O)O)C(=O)N[C@H](C(=O)NCC(=O)N1CCC[C@H]1C(=O)N[C@@H](CCCCN)C(=O)N[C@@H](C)C(=O)N[C@@H](Cc1ccccc1)C(N)=O)C(C)C)[C@@H](C)O)C(C)C)C(C)C)C(C)C)[C@@H](C)O)C(C)C [compound 128] (Ac-KWVTH[Cit]LAGLLS[Cit]SGGVVRKNFVPTDVGPKAF-NH2)	–
89.9	CC(=O)N[C@@H](Cc1c[nH]c2ccccc12)C(=O)N[C@H](C(=O)N[C@H](C(=O)N[C@@H](Cc1cnc[nH]1)C(=O)N[C@@H](CCCNC(N)=O)C(=O)N[C@@H](CC(C)C)C(=O)N[C@@H](C)C(=O)NCC(=O)N[C@@H](CC(C)C)C(=O)N[C@@H](CC(C)C)C(=O)N[C@@H](CO)C(=O)N[C@@H](CCCNC(N)=O)C(=O)N[C@@H](CO)C(=O)NCC(=O)NCC(=O)N[C@H](C(=O)N[C@H](C(=O)N[C@@H](CCCCN=C(N)N)C(=O)N[C@@H](CCCCN)C(=O)N[C@@H](CC(N)=O)C(=O)N[C@@H](Cc1ccccc1)C(=O)N[C@H](C(=O)N1CCC[C@H]1C(=O)N[C@H](C(=O)N[C@@H](CC(=O)O)C(=O)N[C@H](C(=O)NCC(=O)N1CCC[C@H]1C(=O)N1Cc2ccccc2C[C@H]1C(=O)N[C@@H](C)C(=O)N[C@@H](Cc1ccccc1)C(N)=O)C(C)C)[C@@H](C)O)C(C)C)C(C)C)C(C)C)[C@@H](C)O)C(C)C [compound 131] (Ac-WVTH[Cit]LAGLLS[Cit]SGGVV[hArg]KNFVPTDVGP[Tic]AF-NH2)	–
2.57	CC(=O)N[C@@H](Cc1c[nH]c2ccccc12)C(=O)N[C@H](C(=O)N[C@H](C(=O)N[C@@H](Cc1c[nH]cn1)C(=O)N[C@@H](CCCNC(N)=O)C(=O)N[C@@H](CC(C)C)C(=O)N[C@@H](C)C(=O)NCC(=O)N[C@@H](CC(C)C)C(=O)N[C@@H](CC(C)C)C(=O)N[C@@H](CO)C(=O)N[C@@H](CCCNC(N)=O)C(=O)N[C@@H](CO)C(=O)NCC(=O)NCC(=O)N[C@H](C(=O)N[C@H](C(=O)N[C@@H](CCCCNC(=N)N)C(=O)N[C@@H](CCCCN)C(=O)N[C@@H](CC(N)=O)C(=O)N[C@@H](Cc1ccccc1)C(=O)N[C@H](C(=O)N1[C@H](C(=O)N[C@H](C(=O)N[C@@H](CC(=O)O)C(=O)N[C@H](C(=O)NCC(=O)N2[C@H](C(=O)N[C@@H](Cc3ccccc3)C(=O)N[C@@H](C)C(=O)N[C@@H](Cc3ccc4ccccc4c3)C(N)=O)C[C@@H]3CCCC[C@@H]32)C(C)C)[C@@H](C)O)C[C@@H]2CCCC[C@@H]21)C(C)C)C(C)C)C(C)C)[C@@H](C)O)C(C)C [compound 132] (Ac-WVTH[Cit]LAGLLS[Cit]SGGVV[hArg]KNFV[Oic]TDVG[Oic]FA[2Nal]-NH2)	–
2.73	CC(=O)N[C@@H](Cc1c[nH]c2ccccc12)C(=O)N[C@H](C(=O)N[C@H](C(=O)N[C@@H](Cc1c[nH]cn1)C(=O)N[C@@H](CCCNC(N)=O)C(=O)N[C@@H](CC(C)C)C(=O)N[C@@H](C)C(=O)NCC(=O)N[C@@H](CC(C)C)C(=O)N[C@@H](CC(C)C)C(=O)N[C@@H](CO)C(=O)N[C@@H](CCCNC(N)=O)C(=O)N[C@@H](CO)C(=O)NCC(=O)NCC(=O)N[C@H](C(=O)N[C@H](C(=O)N[C@@H](CCCCNC(=N)N)C(=O)N[C@@H](CCCCN)C(=O)N[C@@H](CC(N)=O)C(=O)N[C@@H](Cc1ccccc1)C(=O)N[C@H](C(=O)N1[C@H](C(=O)N[C@H](C(=O)N[C@@H](CC(=O)O)C(=O)N[C@H](C(=O)NCC(=O)N2CCC[C@H]2C(=O)N[C@@H](Cc2cccc3ccccc23)C(=O)N[C@@H](C)C(=O)N[C@@H](Cc2ccc3ccccc3c2)C(N)=O)C(C)C)[C@@H](C)O)C[C@@H]2CCCC[C@@H]21)C(C)C)C(C)C)C(C)C)[C@@H](C)O)C(C)C [compound 133] (Ac-WVTH[Cit]LAGLLS[Cit]SGGVV[hArg]KNFV[Oic]TDVGP[1Nal]A[2Nal]-NH2)	–
3.85	CC(=O)N[C@@H](Cc1c[nH]c2ccccc12)C(=O)N[C@H](C(=O)N[C@H](C(=O)N[C@@H](Cc1c[nH]cn1)C(=O)N[C@@H](CCCNC(N)=O)C(=O)N[C@@H](CC(C)C)C(=O)N[C@@H](C)C(=O)NCC(=O)N[C@@H](CC(C)C)C(=O)N[C@@H](CC(C)C)C(=O)N[C@@H](CO)C(=O)N[C@@H](CCCNC(N)=O)C(=O)N[C@@H](CO)C(=O)NCC(=O)NCC(=O)N[C@H](C(=O)N[C@H](C(=O)N[C@@H](CCCCNC(=N)N)C(=O)N[C@@H](CCCCN)C(=O)N[C@@H](CC(N)=O)C(=O)N[C@@H](Cc1ccccc1)C(=O)N[C@H](C(=O)N1[C@H](C(=O)N[C@H](C(=O)N[C@@H](CC(=O)O)C(=O)N[C@H](C(=O)NCC(=O)N2CCC[C@H]2C(=O)N[C@@H](Cc2ccc(-c3ccccc3)cc2)C(=O)N[C@@H](C)C(=O)N[C@@H](Cc2ccccc2)C(N)=O)C(C)C)[C@@H](C)O)C[C@@H]2CCCC[C@@H]21)C(C)C)C(C)C)C(C)C)[C@@H](C)O)C(C)C [compound 134] (Ac-WVTH[Cit]LAGLLS[Cit]SGGVV[hArg]KNFV[Oic]TDVGP[Bip]AF-NH2)	–
